System: retina
Experiment: Light-induced retinal apoptosis in rats under continuous light exposure, TUNEL staining
Format: in vivo, SD strain rats
Conditions: SD rats exposed to 1000 lux for 4 days; 10 μg/kg subcutaneously three times a day for 4 days; TUNEL-positive cells to total cells per 200 μm of retina; n=5; control 9.3 ± 0.8; p < 0.01
Protocol: (1) Breeding Condition and Administration Method SD strain rats (male, 11 weeks old) were continuously exposed to 1000 lux of light for 4 days. During the exposure of light, the test group animals were administered subcutaneously with a composition comprising 2-decarboxy-2-(2-carboxyethyl)-13,14-dihydro-15-keto-16,16-difluoro-20-ethyl-PGE, isopropyl ester of the following formula (IV) at the amount of 10 μg/kg of the active ingredient per single administration three times a day, for 4 days. The control group animals were administrated subcutaneously the same volume of the vehicle. [drawing 7] (2) Preparation and Staining After the continuous light exposure was finished, animals of test and control groups were sacrificed by excessive etherization and both eyes of each animal were removed. The eyes were immediately fixed in a 2% paraformaldehyde and 2.5% glutaraldehyde solution in phosphate buffer, dehydrated with alcohol, and then embedded in paraffin. Thus fixed eyes were sliced parallel to the meridian of eye to provide thin retinal preparations each comprises optic disc. The obtained slices were subjected to tunnel staining (Apoptag® Intergen Company). (3) Estimation Total cell number and the number of tunnel-positive cells per 200 μm of the retina were counted and the ratio of the TUNEL-positive cells to the total cell number was determined. […]

CCCCCCC(F)(F)C(=O)CC[C@H]1[C@H](O)CC(=O)[C@@H]1CCCCCCCCC(=O)OC(C)C [formula (IV), 2-decarboxy-2-(2-carboxyethyl)-13,14-dihydro-15-keto-16,16-difluoro-20-ethyl-PGE, isopropyl ester]
Ratio of the TUNEL-positive cells (%) (Ave ± SE): 1.5 ± 0.2 %
